Measurements from patent US20030095958A1, “Inhibitors of bace” (priority 2001, published 2003).

Molecular target: BACE (Homo sapiens, UniProt P56817)
Assay: Ki Determination for the Inhibition of BACE (FS-1 peptide fluorescence cleavage assay)
Assay type: biochemical
Conditions: apparent Ki; 50 nM BACE, 10 μM FS-1 substrate, 0.1M sodium acetate pH 4.5
Description: Compounds were tested against BACE activity using the following modifications of the method described in J. Ermolieff et al. (2000) Biochemistry 39(51):16263.
All compound evaluations were performed in 0.1M sodium acetate (buffer), pH, 4.5, 10 μM substrate (FS-1 peptide as described in the reference above; this is commercially available), varying concentrations of the test compound or control (DMSO to yeild 2% vol/vol), and 50 nM BACE. The assay volume is 100 μL.
Two microliters of the test compound dissolved in DMSO are added to each well in a 96-well microtiter plate. Seventy eight microliters of BACE are mixed with buffer and added to each well then incubated at room temperature for 15 minutes. A stock solution of 50 μM FS-1 substrate was prepared by addition of an aliquot of FS-1 substrate which was dissolved in DMSO to the buffer and mixed well. The reaction is initiated by addition of 20 μL of the FS-1 mix to the remaining, preincubated assay components. The cleavage reaction of substrate to product is measured using a Molecular Devices fluorescence plate reader with the excitation and emission filter pairs of 355 nm and 495 nm, respectively. Apparent Ki values are determined by fitting the data to the integrated equation for competitive tight binding inhibition.

BACE, sequence (P56817 46-501): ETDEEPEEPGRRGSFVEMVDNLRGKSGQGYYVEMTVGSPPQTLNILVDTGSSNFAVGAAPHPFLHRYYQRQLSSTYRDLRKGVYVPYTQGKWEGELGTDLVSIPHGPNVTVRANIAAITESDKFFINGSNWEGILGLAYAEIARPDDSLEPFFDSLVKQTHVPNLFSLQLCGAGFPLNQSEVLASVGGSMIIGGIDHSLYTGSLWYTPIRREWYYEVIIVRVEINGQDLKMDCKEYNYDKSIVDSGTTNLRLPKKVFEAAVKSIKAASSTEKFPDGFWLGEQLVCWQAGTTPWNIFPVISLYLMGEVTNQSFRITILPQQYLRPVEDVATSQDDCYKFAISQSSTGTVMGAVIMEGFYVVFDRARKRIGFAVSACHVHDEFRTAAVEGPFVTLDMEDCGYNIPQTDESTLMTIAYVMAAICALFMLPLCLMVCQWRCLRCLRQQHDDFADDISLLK

Row | SMILES | Ki [µM]
1 | O=C(Nc1cc(C(F)(F)F)ccc1N1CCNCC1)c1ccc(F)c2ccccc12 [Compound 101, 4-Fluoro-naphthalene-1-carboxylic acid (2-piperazin-1-yl-5-trifluoromethyl-phenyl)-amide] | > 30
2 | Cc1cc(N2CCNCC2)c(NC(=O)c2cccc3ccccc23)cc1Br [Compound 112, Naphthalene-1-carboxylic acid (5-bromo-4-methyl-2-piperazin-1-yl-phenyl)-amide] | > 30
3 | CC(C)(C)c1ccc(C(=O)Nc2cc(C(F)(F)F)ccc2N2CCNCC2)cc1 [Compound 117, 4-tert-Butyl-N-(2-piperazin-1-yl-5-trifluoromethyl-phenyl)-benzamide] | > 30
4 | O=C(Nc1cc(Br)ccc1N1CCNCC1)c1cccc2ccccc12 [Compound 118, Naphthalene-1-carboxylic acid (5-bromo-2-piperazin-1-yl-phenyl)-amide] | > 30
5 | COc1cccc(-c2ccc(N3CCNCC3)c(NC(=O)c3cccc4ccccc34)c2)c1 [Compound 119, Naphthalene-1-carboxylic acid (3′-methoxy-4-piperazin-1-yl-biphenyl-3-yl)-amide] | > 30
6 | O=C(Nc1cc(-c2cccc(Cl)c2)ccc1N1CCNCC1)c1cccc2ccccc12 [Compound 123, Naphthalene-1-carboxylic acid (3′-chloro-4-piperazin-1-yl-biphenyl-3-yl)-amide] | 3 to 30
7 | Cc1ccc(-c2ccc(N3CCNCC3)c(NC(=O)c3cccc4ccccc34)c2)cc1 [Compound 124, Naphthalene-1-carboxylic acid (4′-methyl-4-piperazin-1-yl-biphenyl-3-yl)-amide] | 3 to 30
8 | O=C(Nc1cc(COc2ccccc2C(F)(F)F)ccc1N1CCNCC1)c1cccc2ccccc12 [Compound 125, Naphthalene-1-carboxylic acid [2-piperazin-1-yl-5-(2-trifluoromethyl-phenoxymethyl)-phenyl]-amide] | 3 to 30
9 | Cc1cccc(-c2ccc(N3CCNCC3)c(NC(=O)c3cccc4ccccc34)c2)c1 [Compound 126, Naphthalene-1-carboxylic acid (3′-methyl-4-piperazin-1-yl-biphenyl-3-yl)-amide] | 3 to 30
10 | O=C(Nc1cc(C(F)(F)F)cc(NC(=O)c2cccc3ccccc23)c1N1CCNCC1)c1cccc2ccccc12 [Compound 127, 4-{2,6-Bis-[(naphthalene-1-carbonyl)-amino]-4-trifluoromethyl-phenyl}-piperazine] | 3 to 30
11 | O=C(Nc1cc(-c2cccc(C(F)(F)F)c2)ccc1N1CCNCC1)c1cccc2ccccc12 [Compound 128, Naphthalene-1-carboxylic acid (4-piperazin-1-yl-3′-trifluoromethyl-biphenyl-3-yl)-amide] | 3 to 30
12 | N#Cc1ccc(-c2ccc(N3CCNCC3)c(NC(=O)c3cccc4ccccc34)c2)cc1 [Compound 131, Naphthalene-1-carboxylic acid (4′-cyano-4-piperazin-1-yl-biphenyl-3-yl)-amide] | 3 to 30
13 | O=C(Nc1cc(Oc2ccccc2)ccc1N1CCNCC1)c1cccc2ccccc12 [Compound 132, Naphthalene-1-carboxylic acid (5-phenoxy-2-piperazin-1-yl-phenyl)-amide] | 3 to 30
14 | O=C(Nc1cc(Oc2ccc(Cl)cc2)ccc1N1CCNCC1)c1cccc2ccccc12 [Compound 133, Naphthalene-1-carboxylic acid [5-(4-chloro-phenoxy)-2-piperazin-1-yl-phenyl]-amide] | 3 to 30
15 | O=C(Cc1cccc2ccccc12)Nc1cc(C(F)(F)F)ccc1N1CCNCC1 [Compound 134, 2-Naphthalen-1-yl-N-(2-piperazin-1-yl-5-trifluoromethyl-phenyl)-acetamide] | > 30
16 | O=S(=O)(Nc1cc(C(F)(F)F)ccc1N1CCNCC1)c1cccc2ccccc12 [Compound 135, Naphthalene-1-sulfonic acid (2-piperazin-1-yl-5-trifluoromethyl-phenyl)-amide] | > 30
17 | O=S(=O)(Nc1cc(C(F)(F)F)ccc1N1CCNCC1)c1ccc2ccccc2c1 [Compound 136, Naphthalene-2-sulfonic acid (2-piperazin-1-yl-5-trifluoromethyl-phenyl)-amide] | > 30
18 | O=S(=O)(Nc1cc(C(F)(F)F)ccc1N1CCNCC1)c1ccc(-c2ccccc2)cc1 [Compound 137, Biphenyl-4-sulfonic acid (2-piperazin-1-yl-5-trifluoromethyl-phenyl)-amide] | 3 to 30

The next lines start with the values.

Row | Ki [µM] | SMILES
19 | 3 to 30 | FC(F)(F)c1ccc(N2CCNCC2)c(NCc2ccc3ccccc3c2)c1 [Compound 100, Naphthalen-2-ylmethyl-(2-piperazin-1-yl-5-trifluoromethyl-phenyl)-amine]
20 | 3 to 30 | O=C(Nc1cc(C(F)(F)F)ccc1N1CCNCC1)c1nccc2ccccc12 [Compound 102, Isoquinoline-1-carboxylic acid (2-piperazin-1-yl-5-trifluoromethyl-phenyl)-amide]
21 | 3 to 30 | O=C(Nc1cc(-c2ccc(F)cc2)ccc1N1CCNCC1)c1cccc2ccccc12 [Compound 103, Naphthalene-1-carboxylic acid (4′-fluoro-4-piperazin-1-yl-biphenyl-3-yl)-amide]
22 | < 3 | O=C(Nc1cc(-c2ccc(F)c(Cl)c2)ccc1N1CCNCC1)c1cccc2ccccc12 [Compound 104, Naphthalene-1-carboxylic acid (3′-chloro-4′-fluoro-4-piperazin-1-yl-biphenyl-3-yl)-amide]
23 | 3 to 30 | O=Cc1cc(-c2ccc(N3CCNCC3)c(NC(=O)c3cccc4ccccc34)c2)ccc1F [Compound 105, Naphthalene-1-carboxylic acid (4′-fluoro-3′-formyl-4-piperazin-1-yl-biphenyl-3-yl)-amide]
24 | < 3 | O=C(Nc1cc(-c2cccc(Cl)c2Cl)ccc1N1CCNCC1)c1cccc2ccccc12 [Compound 106, Naphthalene-1-carboxylic acid (2′,3′-dichloro-4-piperazin-1-yl-biphenyl-3-yl)-amide]
25 | < 3 | O=C(Nc1cc(-c2ccc(Cl)cc2Cl)ccc1N1CCNCC1)c1cccc2ccccc12 [Compound 107, Naphthalene-1-carboxylic acid (2′,4′-dichloro-4-piperazin-1-yl-biphenyl-3-yl)-amide]
26 | < 3 | O=C(Nc1cc(-c2cc(Cl)ccc2Cl)ccc1N1CCNCC1)c1cccc2ccccc12 [Compound 108, Naphthalene-1-carboxylic acid (2′,5′-dichloro-4-piperazin-1-yl-biphenyl-3-yl)-amide]
27 | < 3 | O=C(Nc1cc(-c2cc(Cl)cc(Cl)c2Cl)ccc1N1CCNCC1)c1cccc2ccccc12 [Compound 109, Naphthalene-1-carboxylic acid (2′,3′,5′-trichloro-4-piperazin-1-yl-biphenyl-3-yl)-amide]
28 | 3 to 30 | O=C(Nc1cc(-c2cccnc2)ccc1N1CCNCC1)c1cccc2ccccc12 [Compound 110, Naphthalene-1-carboxylic acid (2-piperazin-1-yl-5-pyridin-3-yl-phenyl)-amide]
29 | 3 to 30 | O=C(Nc1cc(-c2ccncc2)ccc1N1CCNCC1)c1cccc2ccccc12 [Compound 111, Naphthalene-1-carboxylic acid (2-piperazin-1-yl-5-pyridin-4-yl-phenyl)-amide]
30 | 3 to 30 | O=C(Nc1cc(C(F)(F)F)ccc1N1CCNCC1)c1ccc2ccccc2c1 [Compound 113, Naphthalene-2-carboxylic acid (2-piperazin-1-yl-5-trifluoromethyl-phenyl)-amide]
31 | 3 to 30 | O=C(Nc1cc(C(F)(F)F)ccc1N1CCNCC1)c1cccc2ccccc12 [Compound 114, Naphthalene-1-carboxylic acid (2-piperazin-1-yl-5-trifluoromethyl-phenyl)-amide]
32 | 3 to 30 | O=C(Nc1cc(C(F)(F)F)cc(NC(=O)c2ccc3ccccc3c2)c1N1CCNCC1)c1ccc2ccccc2c1 [Compound 115, 4-{2,6-Bis-[(naphthalene-2-carbonyl)-amino]-4-trifluoromethyl-phenyl}-piperazine]
33 | < 3 | FC(F)(F)c1ccccc1OCc1ccc(COc2ccccc2C(F)(F)F)c(N2CCNCC2)c1 [Compound 116, 1-[2,5-Bis-(2-trifluoromethyl-phenoxymethyl)-phenyl]-piperazine]
34 | 3 to 30 | COc1ccc(-c2ccc(N3CCNCC3)c(NC(=O)c3cccc4ccccc34)c2)cc1 [Compound 120, Naphthalene-1-carboxylic acid (4′-methoxy-4-piperazin-1-yl-biphenyl-3-yl)-amide]
35 | 3 to 30 | O=C(Nc1cc(-c2ccc(Cl)cc2)ccc1N1CCNCC1)c1cccc2ccccc12 [Compound 121, Naphthalene-1-carboxylic acid (4′-chloro-4-piperazin-1-yl-biphenyl-3-yl)-amide]
36 | 3 to 30 | O=C(Nc1cc(-c2ccccc2Cl)ccc1N1CCNCC1)c1cccc2ccccc12 [Compound 122, Naphthalene-1-carboxylic acid (2′-chloro-4-piperazin-1-yl-biphenyl-3-yl)-amide]
37 | < 3 | O=C(Nc1cc(-c2ccc(C(F)(F)F)cc2)ccc1N1CCNCC1)c1cccc2ccccc12 [Compound 129, Naphthalene-1-carboxylic acid (4-piperazin-1-yl-4′-trifluoromethyl-biphenyl-3-yl)-amide]
38 | < 3 | O=C(Nc1cc(-c2ccc(Cl)c(Cl)c2)ccc1N1CCNCC1)c1cccc2ccccc12 [Compound 130, Naphthalene-1-carboxylic acid (3′,4′-dichloro-4-piperazin-1-yl-biphenyl-3-yl)-amide]
